# In PMC10979747 (Journal of the American Chemical Society, 2024):
# Read-outs that look alike come from different tables or passages of the source. Numbered stars: 1 amine (or outer) side, 2 acyl side, 3 side chain; on linkers, the order of the positions; unused ones are H or OH. Bridge positions count the residues as written; N and C are the ends. Square brackets hold non-standard residues; d marks the D form. Peptide text beside a SMILES is read from it. X1 = C=C(N[*:2])c1nc(-c2nc(-c3nc(C(=O)OC)cs3)ccc2C(=O)[*:1])cs1; NMePhe(4-NO2) = CN[C@@H](Cc1ccc([N+](=O)[O-])cc1)C(=O)O; Tic(7-OH) = O=C(O)[C@@H]1Cc2ccc(O)cc2CN1; Aad = N[C@@H](CCCC(=O)O)C(=O)O; NMeA = CN[C@@H](C)C(=O)O; Dhb = C/C=C(\N)C(=O)O; Dha = C=C(N)C(=O)O; Sar = CNCC(=O)O
# Legend:
# [1] = human serum (0.33 volumes; Cosmo Bio) added to thiopeptide and internal standard in TBS; settings: 37 °C, up to various timepoints, time axis of Fig. 5c runs to 30 h
# [2] = test system: agarose-immobilized TPCK-treated trypsin (Thermo Fisher); assay: agarose-immobilized TPCK-treated trypsin in digestion buffer [50 mM tris, 100 mM NaCl, 10 mM EDTA, pH 7.9]; settings: 22 °C, up to 6 h
# MINK = MINK (Homo sapiens, UniProt Q8N4C8); assay: Kinase selectivity profiling (STE-1 kit, ADP-Glo readout): MINK; type: biochemical; settings: 1 μM thiopeptide
# Protocol: (§1) 2.9. Kinase inhibition assays with ADP-Glo
# (§2) The ADP-Glo assay system was purchased from Promega. The kinase reaction buffer contained 50 mM Tris (pH 7.5), 10 mM MgCl2 and 0.01% (v/v) triton X-100. […]
# (§3) The reactions were stopped by the addition of ADP -Glo reagent (1 volume), and the luminescent signal was developed following the manufacturer’s instructions. […]
# (§4) Kinase selectivity profiling. A STE-1 kinase selectivity profiling kit from Promega was utilized to assay the compounds. The experiment was conducted following the manufacturer’s instructions, and the signal was developed using the ADP-Glo assay system as described above. All measurements were performed in triplicate. After background correction, the kinase activities were normalized to a no inhibitor control , and percent remaining activity values were calculated accordingly. […]
# trypsin = test system: T1, trypsin; assay: Stability to agarose-immobilized trypsin (LC/MS); type: in vitro ADME; settings: isolated enzyme trypsin, pH 7.9
# T1 construct: purchased Thermo Fisher
# Protocol: 2.10. Thiopeptide metabolic stability experiments
# Stability to trypsin. To a solution of the analyte thiopeptide (15 µM) and the internal standard peptide (5 µM NH2-PEG5-wstndwdtnd-PEG5-CONH2;ref 16 lower case encoding is for D-amino acids; synthesized using the standard Fmoc SPPS techniques) in digestion buffer [50 mM tris, 100 mM NaCl, 10 mM EDTA, pH 7.9] was added agarose -immobilized TPCK-treated trypsin (Thermo Fisher; 1 µL of resin slurry; 100 µL final reaction volume ) that was previously washed with digestion buffer thrice. The mixture was agitated at 22 °C, and at various timepoints (0.5, 1, 2, 4, and 6 h) aliquots were withdrawn and quenched with 14 volumes of water/acetonitrile mixture [30: 70 (v/v) water: acetonitr ile with 0.1% (v/v) TFA]. […]
# in vitro = settings: buffer or solvent, pH 7.5
# TNIK [3] = target: T2, TNIK (Homo sapiens, UniProt Q9UKE5); assay: Surface plasmon resonance, binding of thiopeptides to immobilized biotinylated TNIK (single-cycle, then multicycle kinetics); parameters: Biotinylated TNIK (kinase domain, amino acids 1-314;); biotin (biotinylated protein); purchased Carna Biosciences (Kobe, Japan)
# Protocol: 2.8. Surface plasmon resonance
# In the initial experiment, binding affinities between the thiopeptides and TNIK were measured with a Biacore T200 instrument (GE Healthcare) at 25 °C. The assay buffer contained 50 mM Tris (pH 7.5), 150 mM NaCl, 10 mM MgCl2, 0.01% (v/v) tween-20 and 0.1% (v/v) DMSO. For wTP3, the assay buffer additionally contained ATP (f.c.: 1 mM).
# Biotinylated TNIK was immobilized on a Biacore CAP chip (GE Healthcare) to a surface density of 950-1200 response units following the standard immobilization protocols provided by the manufacturer. The interaction sensorgrams were measured as single-cycle kinetics performed with five concentrations of the ligand sequentially flown over the chip at a flow rate of 15 μL/min allowing for 20 or 30 s association and 70 or 60 s for dissociation between the steps. The final dissociation step was allowed to proceed for 180 s. […]
# was repeated in triplicate on a Biacore 8K instrument (GE Healthcare) using a multi cycle kinetics format. The experimental details were as above, except ATP was not added to the buffer for wTP3. Kinetic parameters and affinities of the interaction were determined assuming the standard 1:1 binding model using the Biacore software (GE Healthcare).
# Reported KD values were calculated from the average measured association and dissociation rates (Table S5).
# Target sequence in this assay (Q9UKE5 1-314): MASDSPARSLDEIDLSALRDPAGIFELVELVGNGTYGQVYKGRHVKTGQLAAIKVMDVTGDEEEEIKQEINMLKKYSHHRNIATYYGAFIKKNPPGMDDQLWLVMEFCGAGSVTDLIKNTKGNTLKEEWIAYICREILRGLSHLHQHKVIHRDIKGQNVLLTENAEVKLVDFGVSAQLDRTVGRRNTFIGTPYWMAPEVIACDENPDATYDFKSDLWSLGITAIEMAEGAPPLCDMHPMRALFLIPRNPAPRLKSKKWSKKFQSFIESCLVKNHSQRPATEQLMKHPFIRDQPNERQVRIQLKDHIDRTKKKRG
# TNIK [4] = target: T2, TNIK; assay: ADP-Glo kinase inhibition assay; type: biochemical; parameters: Biotinylated TNIK (kinase domain, amino acids 1-314;); biotin (biotinylated protein); purchased Carna Biosciences (Kobe, Japan); settings: 0.5 nM TNIK, 25 µM ATP, 15 µM MSTtide, 4-parameter logistic fit; for IC50: read-out: ADP-Glo IC50 against TNIK
# Protocol: as §1
# Target sequence in this assay (Q9UKE5 1-314): as above
# The ADP-Glo assay system was purchased from Promega. The kinase reaction buffer contained 50 mM Tris (pH 7.5), 10 mM MgCl2 and 0.01% (v/v) triton X-100. TNIK (1.25 nM) was incubated with various concentrations of analyte inhibitors in kinase reaction buffer at 25 °C for 10 min. After, the reactions were initiated by the addition of ATP and substrate […]
# peptide (MSTtide, sequence: NH2-NKGYNTLRRKK-CONH2;ref 14 synthesized using the standard Fmoc SPPS techniques). The final mixtures containing 0.5 nM TNIK, 25 µM ATP, 15 µM MSTtide and variable concentration of the inhibitors were incubated at 25 °C for 30 min. The reactions were stopped by the addition of ADP -Glo reagent (1 volume), and the luminescent signal was developed following the manufacturer’s instructions. Luminesce was recorded on a Tecan M1000 PRO microplate reader (Tecan Group) with 1 s acquisition time and no signal attenuation. TNIK kinase activity was normalized to a no inhibitor control, and […]
# values to the standard 4-parameter logistic curve model. […]
# [5] = Stability to glutathione (LC/MS)
# Protocol: Stability to glutathione. To a freshly prepared solution of glutathione (5 mM) in stability
# buffer [50 mM HEPES (pH 7.5), 100 mM NaCl] was added a solution of analyte (1.5 mM
# thiopeptide in DMSO; f. c.: 10 µM). The contents were mixed and transferred to a 37 °C
# thermostat. At various time points (0.5, 1, 2, 4, 6, and 10 h) aliquots were withdrawn and
# quenched with 2 volumes of methanol containing 30 mM iodoacetamide. The samples were
# analyzed by LC/MS (0.3 µL; section 2.6) using method 3. Areas under the peak curve for all
# thiopeptide-derived products in the sample (TIC chromatograms) were used to calculate
# fractions of intact analyte. Thiopeptide half-life values were obtained from non-linear
# regression (scipy)15 of experimentally measured values to the pseudo-first order
# approximation for the reaction kinetics which can be used since [glutathione] >> [analyte].
# [6] = test system: HCT116 colon carcinoma cells; assay: Cell viability assay (Cell Counting Kit-8); settings: for cytotoxicity (cell viability) after 24 h incubation: thiopeptide acetate salts
# Protocol: HCT116 cells were cultured in McCoy's 5A (Modified) Medium supplemented with 1% (v/v)
# penicillin-streptomycin and 10% (v/v) fetal bovine serum (all from Thermo Fisher) in a
# All assays were conducted using thiopeptide acetate salts prepared as follows. Strong
# anion resin (AG® 1–X8 acetate form, analytical grade, quaternary ammonium 10~50 mg)
# was first washed three times with 1.6 N acetic acid and three times with 0.16 N acetic acid.
# Then, a thiopeptide solution ( 0.5~3 mg, dissolved in water/ acetonitrile [1:1, v/v; ~1 ml]) was
# added to the resin. After 2 h on a rotary shaker, the peptide-resin suspension was ﬁltered
# and the liquid phase was recovered. The resin was washed twice with water/acetonitrile (1:1,
# v/v; 0.5 ml/wash), and the solutions were combined.
# Cell viability assays. HCT116 cells were grown to 40–50% confluency in 96-well plates
# that the final DMSO concentration is 1% (v/v) for every sample. In the first experiment (Fig.
# S44a), the cells were grown for 24 h, and the incubation time was further extended to 48 h
# In both cases, the cell viability was
# directly assayed with Cell Counting Kit-8 (Dojindo) following the manufacturer’s instructions
# allowing 4 h to develop the signal. Absorbance at 450 nm was measured on a Tecan M1000
# PRO microplate reader (Tecan Group), and live cell counts were normalized to the DMSO
# control. All experiments were performed in triplicate, and in most cases, replicated at least
# once to analogous outcomes.
# [7] = Serum stability assay (LC/MS against internal standard); settings: human, human serum diluted in TBS, pH 7.6
# Protocol: The ratio of areas under the peak for the intact analyte over the internal standard (EIC
# chromatograms generated with m/z ± 3 cutoff values) were used to calculate the extent of
# analyte degradation. Thiopeptide half-life values were obtained from non-linear regression
# (scipy)15 of experimentally measured values to the standard first order kinetic decomposition
# Serum stability assay. To a solution of analyte thiopeptide (13.3 µM) and the internal
# standard peptide in TBS [5 µM; buffer: 50 mM Tris (pH 7.6), 150 mM NaCl] human serum
# (0.33 volumes; Cosmo Bio) was added on ice. The solutions were mixed well and transferred to a 37 °C thermostat. At various timepoints, aliquots were withdrawn and quenched with 2.3 volumes of methanol containing 30 mM iodoacetamide. The mixtures were incubated on
# ice for 15 min and then at 25 °C for 30 min. The samples were then centrifuged (15300 g for
# 5 min), and the supernatant (0.5 µL) was analyzed by LC/MS (section 2.5) using method 6
# 1 – 10 min 1 – 81% B, linear ramp
# Data analysis was conducted as for the trypsin digestion assays.
# TNIK [8] = target: T2, TNIK; assay: Kinase selectivity profiling (STE-1 kit, ADP-Glo readout): TNIK; type: biochemical; settings: 10 μM thiopeptide
# Protocol: as §1, §2, §3, §4
# Target sequence in this assay (Q9UKE5 whole entry, the tested form may be a part): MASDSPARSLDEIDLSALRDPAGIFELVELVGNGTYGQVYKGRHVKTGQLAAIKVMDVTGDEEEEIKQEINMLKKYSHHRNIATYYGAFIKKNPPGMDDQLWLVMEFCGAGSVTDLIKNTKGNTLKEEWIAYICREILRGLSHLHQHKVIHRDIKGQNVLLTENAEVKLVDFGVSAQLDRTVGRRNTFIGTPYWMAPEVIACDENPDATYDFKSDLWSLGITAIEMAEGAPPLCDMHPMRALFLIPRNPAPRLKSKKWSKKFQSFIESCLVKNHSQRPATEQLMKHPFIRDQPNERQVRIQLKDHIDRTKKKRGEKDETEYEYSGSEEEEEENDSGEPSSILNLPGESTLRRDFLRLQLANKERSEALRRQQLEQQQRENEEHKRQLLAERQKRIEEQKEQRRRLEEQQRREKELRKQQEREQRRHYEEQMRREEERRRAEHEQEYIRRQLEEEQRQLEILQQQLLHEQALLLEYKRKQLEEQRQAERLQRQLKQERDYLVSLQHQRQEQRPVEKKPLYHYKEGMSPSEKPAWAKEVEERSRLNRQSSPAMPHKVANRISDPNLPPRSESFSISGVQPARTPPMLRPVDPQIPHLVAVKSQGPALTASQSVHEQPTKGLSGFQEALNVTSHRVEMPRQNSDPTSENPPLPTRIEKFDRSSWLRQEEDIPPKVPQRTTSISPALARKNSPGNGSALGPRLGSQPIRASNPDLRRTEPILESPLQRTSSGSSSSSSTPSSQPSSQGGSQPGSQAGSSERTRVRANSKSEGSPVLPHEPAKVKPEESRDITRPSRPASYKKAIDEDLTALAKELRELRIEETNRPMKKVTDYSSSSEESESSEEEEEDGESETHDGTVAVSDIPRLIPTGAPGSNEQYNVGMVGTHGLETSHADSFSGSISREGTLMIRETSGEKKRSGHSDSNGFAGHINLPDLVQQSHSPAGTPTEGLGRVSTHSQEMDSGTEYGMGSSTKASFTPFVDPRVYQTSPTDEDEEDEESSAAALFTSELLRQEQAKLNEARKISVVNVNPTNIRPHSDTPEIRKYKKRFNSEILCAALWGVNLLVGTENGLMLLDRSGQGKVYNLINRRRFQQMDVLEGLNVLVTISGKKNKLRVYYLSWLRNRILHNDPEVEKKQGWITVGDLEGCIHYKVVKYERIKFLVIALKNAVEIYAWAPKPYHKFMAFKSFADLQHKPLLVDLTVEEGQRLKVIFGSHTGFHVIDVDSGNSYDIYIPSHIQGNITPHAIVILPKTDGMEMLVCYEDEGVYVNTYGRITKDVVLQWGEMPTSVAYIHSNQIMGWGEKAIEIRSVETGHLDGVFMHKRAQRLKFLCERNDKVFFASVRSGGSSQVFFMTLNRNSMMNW
# [9] = SPR kinetic data, binding to immobilized TNIK
# [10] = SPR kinetic data, binding to immobilized TNIK, read-out: KD
# [11] = average from three multicycle kinetic experiments, 1:1 binding model, 25 °C
# Chain of MINK (Q8N4C8 whole entry): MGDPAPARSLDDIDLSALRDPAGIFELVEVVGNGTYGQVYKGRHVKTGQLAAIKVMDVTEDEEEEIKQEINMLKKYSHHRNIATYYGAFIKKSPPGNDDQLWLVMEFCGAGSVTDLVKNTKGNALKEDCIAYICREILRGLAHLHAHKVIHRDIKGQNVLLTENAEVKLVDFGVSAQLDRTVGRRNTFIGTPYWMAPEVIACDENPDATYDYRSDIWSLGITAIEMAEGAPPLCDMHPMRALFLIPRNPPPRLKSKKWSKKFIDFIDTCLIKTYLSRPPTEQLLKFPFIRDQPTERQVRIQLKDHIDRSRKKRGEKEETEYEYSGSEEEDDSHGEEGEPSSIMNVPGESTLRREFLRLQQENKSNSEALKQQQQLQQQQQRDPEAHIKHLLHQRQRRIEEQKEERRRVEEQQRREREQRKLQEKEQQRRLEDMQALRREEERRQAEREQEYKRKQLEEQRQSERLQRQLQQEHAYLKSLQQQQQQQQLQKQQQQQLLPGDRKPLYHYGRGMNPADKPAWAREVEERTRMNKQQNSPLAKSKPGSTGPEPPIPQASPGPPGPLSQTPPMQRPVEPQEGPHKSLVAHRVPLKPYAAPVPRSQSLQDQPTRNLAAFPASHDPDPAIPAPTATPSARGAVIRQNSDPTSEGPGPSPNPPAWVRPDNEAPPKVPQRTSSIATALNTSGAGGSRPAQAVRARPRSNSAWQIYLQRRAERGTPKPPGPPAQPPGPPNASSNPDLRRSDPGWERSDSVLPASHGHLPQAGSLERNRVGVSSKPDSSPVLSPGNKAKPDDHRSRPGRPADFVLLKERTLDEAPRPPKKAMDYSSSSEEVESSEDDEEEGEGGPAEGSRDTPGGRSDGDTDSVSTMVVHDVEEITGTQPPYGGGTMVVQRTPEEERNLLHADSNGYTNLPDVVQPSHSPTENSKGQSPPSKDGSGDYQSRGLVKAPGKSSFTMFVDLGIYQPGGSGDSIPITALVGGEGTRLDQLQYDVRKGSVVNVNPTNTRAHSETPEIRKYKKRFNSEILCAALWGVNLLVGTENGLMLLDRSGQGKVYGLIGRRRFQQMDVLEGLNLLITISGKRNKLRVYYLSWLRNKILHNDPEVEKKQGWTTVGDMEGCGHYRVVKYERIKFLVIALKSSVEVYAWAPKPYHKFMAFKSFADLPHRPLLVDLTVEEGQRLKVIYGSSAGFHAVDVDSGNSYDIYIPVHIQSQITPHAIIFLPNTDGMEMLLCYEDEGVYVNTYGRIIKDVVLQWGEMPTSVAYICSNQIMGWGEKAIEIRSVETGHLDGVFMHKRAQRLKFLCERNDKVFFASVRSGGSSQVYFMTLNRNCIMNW
half-life at 15 µM (trypsin) [h],koff (TNIK [3]; [9]) [s⁻¹],kon (TNIK [3]; [9]) [M⁻¹ s⁻¹],Kd (TNIK [3]; [10]) [nM],KD (binding affinity to TNIK) (TNIK [3]; [11]),ADP-Glo IC50 against TNIK (TNIK [4]),Compound,fragment found [1],half-life at 10 µM (in vitro) [h],IC50 (TNIK [4]) [nM],also measured
–,–,–,–,–,–,WSCNgSSgfyTA,demethylated but otherwise undigested thiopeptides,–,–,not cleaved [2]: did not degrade (6 h); completely stable; τ1/2 >100 h
1.4 ± 0.1,0.0216,4.78e+06,4.5,single-digit,sub-μM,C=C1NC(=O)[C@H](CC(C)C)NC(=O)[C@H](CC(N)=O)NC(=O)[C@H](CO)NC(=O)[C@H](CCCNC(=N)N)NC(=O)[C@H](CCCNC(=N)N)NC(=O)CN(C)C(=O)[C@H](C)N(C)C(=O)[C@H](CC(C)C)NC(=O)[C@H](CCCNC(=N)N)NC(=O)[C@@H]2CCCN2C(=O)[C@@H]2Cc3ccc(O)cc3CN2C(=O)[C@H]([C@@H](C)O)NC(=O)[C@H](Cc2c[nH]c3ccccc23)NC(=O)c2ccc(-c3nc(C(=O)OC)cs3)nc2-c2csc1n2 [hTP15] (WT[Tic(7-OH)]PRL[NMeA][Sar]RRSNL; linker N-C via X1),–,101 ± 7,150 ± 10,inhibition of MINK (MINK): 60%
–,–,–,–,–,–,WLRTgRaSTfTG,demethylated but otherwise undigested thiopeptides,–,–,–
> 100,0.00579,1.37e+06,4.2,single-digit,no measurable binding/inhibition,C=C1NC(=O)[C@H](Cc2ccc([N+](=O)[O-])cc2)N(C)C(=O)[C@H]([C@@H](C)O)NC(=O)C(=C)NC(=O)C(=C)NC(=O)[C@@H]2Cc3ccc(O)cc3CN2C(=O)CN(C)C(=O)C(=C)NC(=O)CN(C)C(=O)[C@H](CCCC(N)=O)NC(=O)[C@H](Cc2c[nH]c3ccccc23)NC(=O)[C@H](Cc2c[nH]c3ccccc23)NC(=O)c2ccc(-c3nc(C(=O)OC)cs3)nc2-c2csc(n2)C(=C)NC(=O)CNC1=O [wTP3] (WW[Aad](NH2)[Sar][Dha][Sar][Tic(7-OH)][Dha][Dha]T[NMePhe(4-NO2)][Dha]G; linker N-C via X1),–,–,–,"half-life at 10 µM ([5]; 5 mM glutathione in HEPES buffer, pH 7.5): 20.6 ± 2 h; metabolic stability, τ1/2, glutathione ([5]; 5 mM glutathione, pH 7.5, 37 °C): 20.6 h; cytotoxicity (cell viability) after 24 h incubation ([6]; 8 μM): inactive; half-life at 10 µM [7]: 17.2 ± 1.1 h"

Compound,half-life at 15 µM (trypsin) [h],koff (TNIK [3]; [9]) [s⁻¹],kon (TNIK [3]; [9]) [M⁻¹ s⁻¹],Kd (TNIK [3]; [10]) [nM],KD (binding affinity to TNIK) (TNIK [3]; [11]),ADP-Glo IC50 against TNIK (TNIK [4]),fragment found [1],half-life at 10 µM (in vitro) [h],IC50 (TNIK [4]) [nM],also measured
C=C1NC(=O)[C@H](C)N(C)C(=O)[C@H](CCCNC(=N)N)NC(=O)CN(C)C(=O)/C(=C/C)NC(=O)[C@H](CCCNC(=N)N)NC(=O)[C@H](CC(C)C)NC(=O)[C@H](Cc2c[nH]c3ccccc23)NC(=O)[C@H](Cc2c[nH]c3ccccc23)NC(=O)c2ccc(-c3nc(C(=O)OC)cs3)nc2-c2csc(n2)C(=C)NC(=O)CNC(=O)/C(=C/C)NC(=O)[C@H](Cc2ccc([N+](=O)[O-])cc2)N(C)C(=O)[C@H]([C@@H](C)O)NC1=O [hTP8] (WWLR[Dhb][Sar]R[NMeA][Dha]T[NMePhe(4-NO2)][Dhb]G; linker N-C via X1),4.9 ± 0.6,0.00256,1.21e+06,–,single-digit,–,–,6.4 ± 0.1,1180 ± 160,"suppression of TNIK activity (TNIK [8]): 94%; cytotoxicity (cell viability) after 24 h incubation ([6]; 10 μM): more cytotoxic than a small molecule control, NCB0846; concentrations at which strongly cytotoxic ([6]; dose-dependent assay): above 5 µM; IC50 ([6]; read-out: IC50, cell viability, dose-dependent 48 h incubation): 7200 nM; Kd (TNIK [3]; average from three multicycle kinetic experiments, 1:1 binding model, 25 °C, read-out: KD (binding affinity to TNIK)): 2.1 nM"
